Laboratory results reported in article PMC6149898, “GPCR Modulation of Thieno[2,3-b]pyridine Anti-Proliferative Agents” (Molecules : A Journal of Synthetic Chemistry and Natural …, 2017).

Tests used:
CALCRL-RAMP3 = molecular target: T1, CALCRL-RAMP3 (Homo sapiens, UniProt O60896+Q16602); test: gpcrMAX PathHunter beta-arrestin; format: cell-based
T1 construct: ProLink (beta-galactosidase enzyme-donor fragment)
Procedure: (§1) complementation (EFC) technology. […]
(§2) challenge at the EC80 concentration. […]
(§3) minutes. Vehicle concentration was 1%. […]
(§4) room temperature for 90 or 180 minutes. […]
(§5) instrument for chemiluminescent signal detection.
(§6) 11 GPCR MAX dose response, Agonist and Antagonist
(§7) Targets (60 Data points each): i) CALCRL‐RAMP3‐Antagonist
(§8) 180 minutes. Vehicle concentration was 1%. […]
(§9) hours. Vehicle concentration was 1%. Extended incubation is typically required to observe an inverse agonist response in the PathHunter arrestin assay.
(§10) Positive Allosteric Modulation Format
(§11) 1. For allosteric determination, cells were pre-incubated with sample followed by agonist induction at the EC20 concentration. […]
(§12) temperature for 90 or 180 minutes.
(§13) Antagonist/Negative Allosteric Modulation Format
(§14) 1. Compound activity was analyzed using CBIS data analysis suite (ChemInnovation, CA).

CXCR4 = molecular target: T2, CXCR4 (Homo sapiens, UniProt P61073); test: gpcrMAX PathHunter beta-arrestin; format: cell-based
T2 construct: ProLink (beta-galactosidase enzyme-donor fragment)
Procedure: as §1, §2, §3, §4, §5, §6, §7, §8, §9, §10, §11, §12, §13, §14

GPR35 = molecular target: T3, GPR35 (Homo sapiens, UniProt Q9HC97); test: gpcrMAX PathHunter beta-arrestin; format: cell-based
T3 construct: ProLink (beta-galactosidase enzyme-donor fragment)
Procedure: as §1, §2, §3, §4, §5, §6, §7, §8, §9, §10, §11, §12, §13, §14

HTR1B = molecular target: T4, HTR1B (Homo sapiens, UniProt P28222); test: gpcrMAX PathHunter beta-arrestin; format: cell-based
T4 construct: ProLink (beta-galactosidase enzyme-donor fragment)
Procedure: as §1, §2, §3, §4, §5, §6, §7, §8, §9, §10, §11, §12, §13, §14

NPSR1B = molecular target: T5, NPSR1B (Homo sapiens, UniProt Q6W5P4); test: gpcrMAX PathHunter beta-arrestin; format: cell-based
T5 construct: ProLink (beta-galactosidase enzyme-donor fragment)
Procedure: as §1, §2, §3, §4, §5, §6, §7, §8, §9, §10, §11, §12, §13, §14

PRLHR = molecular target: T6, PRLHR (Homo sapiens, UniProt P49683); test: gpcrMAX PathHunter beta-arrestin; format: cell-based
T6 construct: ProLink (beta-galactosidase enzyme-donor fragment)
Procedure: as §1, §2, §3, §4, §5, §6, §7, §8, §9, §10, §11, §12, §13, §14

CO:HT29 = test system: CO:HT29; set-up: method as in earlier work; conditions: NCI-60 panel; ref [4],[5],[6],[7]; cited from earlier work
LE:HL-60(TB) = test system: LE:HL-60(TB); set-up: method as in earlier work; conditions: NCI-60 panel; ref [4],[5],[6],[7]; cited from earlier work
OV:NCI/ADR-RES = test system: OV:NCI/ADR-RES; set-up: method as in earlier work; conditions: NCI-60 panel; ref [4],[5],[6],[7]; cited from earlier work
PR:PC-3 = test system: PR:PC-3; set-up: method as in earlier work; conditions: NCI-60 panel; ref [4],[5],[6],[7]; cited from earlier work
AVPR2 = AVPR2 (Homo sapiens, UniProt P30518); test: gpcrMAX PathHunter beta-arrestin
DRD1 = DRD1 (Homo sapiens, UniProt P21728); test: gpcrMAX PathHunter beta-arrestin
DRD2S = DRD2S (Homo sapiens, UniProt P14416); test: gpcrMAX PathHunter beta-arrestin
DRD3 = DRD3 (Homo sapiens, UniProt P35462); test: gpcrMAX PathHunter beta-arrestin
EDG5 = EDG5 (Homo sapiens, UniProt O95136); test: gpcrMAX PathHunter beta-arrestin
GLP1R = GLP1R (Homo sapiens, UniProt P43220); test: gpcrMAX PathHunter beta-arrestin
GPR109B = GPR109B (Homo sapiens, UniProt P49019); test: gpcrMAX PathHunter beta-arrestin
MC3R = MC3R (Homo sapiens, UniProt P41968); test: gpcrMAX PathHunter beta-arrestin
MCHR1 = MCHR1 (Homo sapiens, UniProt Q99705); test: gpcrMAX PathHunter beta-arrestin
P2RY4 = P2RY4 (Homo sapiens, UniProt P51582); test: gpcrMAX PathHunter beta-arrestin
PTHR2 = PTHR2 (Homo sapiens, UniProt P49190); test: gpcrMAX PathHunter beta-arrestin
[1] = antagonist format, dose response

T5 sequence (Q6W5P4 1-377 isoform Q6W5P4-4): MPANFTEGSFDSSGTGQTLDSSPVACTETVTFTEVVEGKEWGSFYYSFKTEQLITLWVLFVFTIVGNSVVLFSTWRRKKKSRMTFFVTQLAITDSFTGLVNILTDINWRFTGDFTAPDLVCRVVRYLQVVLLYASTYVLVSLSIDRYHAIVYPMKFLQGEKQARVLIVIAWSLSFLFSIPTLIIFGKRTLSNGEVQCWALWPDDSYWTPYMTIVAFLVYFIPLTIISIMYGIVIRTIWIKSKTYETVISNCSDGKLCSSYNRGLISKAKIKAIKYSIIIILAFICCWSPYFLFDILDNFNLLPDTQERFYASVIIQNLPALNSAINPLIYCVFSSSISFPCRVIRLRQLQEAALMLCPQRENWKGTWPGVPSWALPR
T6 sequence (P49683 whole entry, the tested form may be a part): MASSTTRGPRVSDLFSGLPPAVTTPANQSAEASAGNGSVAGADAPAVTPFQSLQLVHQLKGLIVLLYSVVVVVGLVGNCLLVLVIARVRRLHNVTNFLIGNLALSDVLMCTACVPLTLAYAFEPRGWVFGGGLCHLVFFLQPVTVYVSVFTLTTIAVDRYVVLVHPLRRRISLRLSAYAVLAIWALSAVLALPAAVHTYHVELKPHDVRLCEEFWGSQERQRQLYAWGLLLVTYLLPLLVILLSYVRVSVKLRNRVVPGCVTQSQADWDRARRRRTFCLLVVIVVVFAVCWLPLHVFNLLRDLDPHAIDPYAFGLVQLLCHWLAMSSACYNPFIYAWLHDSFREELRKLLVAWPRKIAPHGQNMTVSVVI
T1 sequence (Q16602 23-461): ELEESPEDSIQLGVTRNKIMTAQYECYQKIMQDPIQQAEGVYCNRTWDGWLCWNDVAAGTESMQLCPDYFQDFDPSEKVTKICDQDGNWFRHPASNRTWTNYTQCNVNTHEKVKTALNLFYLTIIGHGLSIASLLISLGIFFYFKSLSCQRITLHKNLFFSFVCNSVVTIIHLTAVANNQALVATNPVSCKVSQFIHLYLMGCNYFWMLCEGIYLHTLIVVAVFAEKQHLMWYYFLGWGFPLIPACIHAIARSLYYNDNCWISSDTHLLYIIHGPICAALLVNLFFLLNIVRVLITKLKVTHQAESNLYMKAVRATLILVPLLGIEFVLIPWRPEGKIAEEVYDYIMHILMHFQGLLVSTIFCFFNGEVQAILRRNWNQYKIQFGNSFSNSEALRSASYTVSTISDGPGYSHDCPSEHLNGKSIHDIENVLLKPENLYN
T1 sequence (O60896 24-148 partner): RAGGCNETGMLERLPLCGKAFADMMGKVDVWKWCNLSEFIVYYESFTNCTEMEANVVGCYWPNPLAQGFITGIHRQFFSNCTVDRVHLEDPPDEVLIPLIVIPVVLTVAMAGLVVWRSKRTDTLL
T2 sequence (P61073 whole entry, the tested form may be a part): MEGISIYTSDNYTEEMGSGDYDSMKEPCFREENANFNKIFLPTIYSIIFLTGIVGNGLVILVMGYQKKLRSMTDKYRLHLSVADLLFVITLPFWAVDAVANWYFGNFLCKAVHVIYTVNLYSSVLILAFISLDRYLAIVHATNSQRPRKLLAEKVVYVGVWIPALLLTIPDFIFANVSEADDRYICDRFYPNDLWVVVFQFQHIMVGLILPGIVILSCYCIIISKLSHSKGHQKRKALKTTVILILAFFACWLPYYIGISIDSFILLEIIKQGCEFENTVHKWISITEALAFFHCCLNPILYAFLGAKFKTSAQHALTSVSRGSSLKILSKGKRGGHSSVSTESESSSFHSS
T3 sequence (Q9HC97 whole entry, the tested form may be a part): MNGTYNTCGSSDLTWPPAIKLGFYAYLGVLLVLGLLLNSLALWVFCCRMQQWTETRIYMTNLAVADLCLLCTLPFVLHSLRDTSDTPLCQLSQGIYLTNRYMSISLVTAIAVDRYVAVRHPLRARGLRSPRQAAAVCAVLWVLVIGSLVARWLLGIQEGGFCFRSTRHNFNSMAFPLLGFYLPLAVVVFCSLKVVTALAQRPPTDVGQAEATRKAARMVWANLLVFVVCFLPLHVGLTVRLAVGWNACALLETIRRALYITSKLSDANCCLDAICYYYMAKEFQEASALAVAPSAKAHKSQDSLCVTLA
T4 sequence (P28222 whole entry, the tested form may be a part): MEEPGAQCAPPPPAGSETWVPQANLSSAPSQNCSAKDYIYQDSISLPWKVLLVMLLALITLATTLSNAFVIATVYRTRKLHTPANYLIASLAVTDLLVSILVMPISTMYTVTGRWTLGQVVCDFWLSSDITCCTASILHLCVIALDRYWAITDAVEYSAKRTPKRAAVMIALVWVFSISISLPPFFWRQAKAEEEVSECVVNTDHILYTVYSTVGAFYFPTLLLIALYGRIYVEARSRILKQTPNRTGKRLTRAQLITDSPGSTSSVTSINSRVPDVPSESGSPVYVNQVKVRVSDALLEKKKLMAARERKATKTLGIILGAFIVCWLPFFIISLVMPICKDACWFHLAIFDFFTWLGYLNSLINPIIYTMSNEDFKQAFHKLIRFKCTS
Chain of MCHR1 (Q99705 whole entry): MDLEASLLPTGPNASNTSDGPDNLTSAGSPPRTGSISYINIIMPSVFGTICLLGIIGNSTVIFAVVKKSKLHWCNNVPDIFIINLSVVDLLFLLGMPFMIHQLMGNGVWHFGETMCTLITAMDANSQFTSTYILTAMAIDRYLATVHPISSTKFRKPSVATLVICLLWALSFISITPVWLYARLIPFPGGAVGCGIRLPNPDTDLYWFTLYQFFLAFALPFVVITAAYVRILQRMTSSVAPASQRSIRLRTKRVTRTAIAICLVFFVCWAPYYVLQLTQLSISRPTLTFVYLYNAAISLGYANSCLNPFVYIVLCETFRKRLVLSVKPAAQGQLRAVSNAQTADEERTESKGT
Chain of DRD3 (P35462 whole entry): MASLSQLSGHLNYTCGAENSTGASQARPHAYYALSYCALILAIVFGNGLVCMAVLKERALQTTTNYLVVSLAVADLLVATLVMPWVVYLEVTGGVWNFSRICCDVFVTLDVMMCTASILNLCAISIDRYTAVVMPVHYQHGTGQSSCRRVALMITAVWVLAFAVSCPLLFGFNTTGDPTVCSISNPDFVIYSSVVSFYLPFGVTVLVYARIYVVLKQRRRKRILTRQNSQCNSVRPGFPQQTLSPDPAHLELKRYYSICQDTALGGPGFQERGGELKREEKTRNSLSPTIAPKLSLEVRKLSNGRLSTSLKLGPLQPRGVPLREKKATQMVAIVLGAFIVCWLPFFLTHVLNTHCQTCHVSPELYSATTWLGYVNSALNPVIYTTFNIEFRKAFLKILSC
Chain of PTHR2 (P49190 25-550): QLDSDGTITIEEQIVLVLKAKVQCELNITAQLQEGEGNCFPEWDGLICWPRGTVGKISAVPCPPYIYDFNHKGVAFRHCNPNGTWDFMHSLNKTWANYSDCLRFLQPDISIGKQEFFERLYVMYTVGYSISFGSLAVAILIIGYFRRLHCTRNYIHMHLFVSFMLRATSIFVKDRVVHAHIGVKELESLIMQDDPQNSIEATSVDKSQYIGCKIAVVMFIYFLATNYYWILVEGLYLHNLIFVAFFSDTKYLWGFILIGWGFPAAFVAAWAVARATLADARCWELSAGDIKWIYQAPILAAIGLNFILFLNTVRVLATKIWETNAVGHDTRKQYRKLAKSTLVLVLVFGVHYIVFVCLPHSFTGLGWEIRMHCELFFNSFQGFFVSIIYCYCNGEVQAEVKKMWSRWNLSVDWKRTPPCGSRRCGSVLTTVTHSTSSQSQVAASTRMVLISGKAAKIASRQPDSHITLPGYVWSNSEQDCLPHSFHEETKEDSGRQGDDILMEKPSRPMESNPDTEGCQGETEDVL
Chain of DRD1 (P21728 whole entry): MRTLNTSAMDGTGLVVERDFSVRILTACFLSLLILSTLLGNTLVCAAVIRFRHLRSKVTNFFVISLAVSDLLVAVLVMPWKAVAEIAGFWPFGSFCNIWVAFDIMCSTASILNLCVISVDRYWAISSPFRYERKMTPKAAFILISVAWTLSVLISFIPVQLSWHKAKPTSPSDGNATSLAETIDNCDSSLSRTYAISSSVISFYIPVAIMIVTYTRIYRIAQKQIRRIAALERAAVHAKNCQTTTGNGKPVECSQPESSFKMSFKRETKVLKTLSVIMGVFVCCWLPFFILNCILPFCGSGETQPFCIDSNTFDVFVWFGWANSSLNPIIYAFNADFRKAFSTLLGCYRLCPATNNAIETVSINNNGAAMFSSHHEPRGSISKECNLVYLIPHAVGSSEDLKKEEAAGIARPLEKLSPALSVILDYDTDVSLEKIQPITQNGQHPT
Chain of DRD2S (P14416 1-414 isoform P14416-2): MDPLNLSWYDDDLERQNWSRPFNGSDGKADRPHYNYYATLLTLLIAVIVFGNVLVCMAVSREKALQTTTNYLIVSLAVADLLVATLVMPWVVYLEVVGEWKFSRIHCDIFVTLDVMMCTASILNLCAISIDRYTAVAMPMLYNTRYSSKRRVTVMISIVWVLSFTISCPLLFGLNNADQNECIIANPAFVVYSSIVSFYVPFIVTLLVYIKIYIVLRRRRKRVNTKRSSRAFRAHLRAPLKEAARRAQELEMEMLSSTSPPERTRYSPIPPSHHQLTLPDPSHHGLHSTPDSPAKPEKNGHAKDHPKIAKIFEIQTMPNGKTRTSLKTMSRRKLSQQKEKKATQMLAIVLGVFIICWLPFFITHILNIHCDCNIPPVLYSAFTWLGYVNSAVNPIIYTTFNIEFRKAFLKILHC
Chain of GPR109B (P49019 whole entry): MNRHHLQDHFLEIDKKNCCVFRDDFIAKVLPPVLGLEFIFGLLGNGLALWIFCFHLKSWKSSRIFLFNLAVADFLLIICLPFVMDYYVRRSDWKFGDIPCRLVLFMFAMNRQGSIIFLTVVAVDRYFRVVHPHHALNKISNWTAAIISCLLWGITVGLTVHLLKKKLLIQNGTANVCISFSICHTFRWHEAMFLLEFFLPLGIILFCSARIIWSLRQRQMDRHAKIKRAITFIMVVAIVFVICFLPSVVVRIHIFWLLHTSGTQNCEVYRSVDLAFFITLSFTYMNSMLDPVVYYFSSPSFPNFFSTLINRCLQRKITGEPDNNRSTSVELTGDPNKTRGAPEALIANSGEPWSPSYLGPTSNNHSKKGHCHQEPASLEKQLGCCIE

Question: Which results are given for `Cc1c(Cl)cccc1NC(=O)c1sc2nc3c(cc2c1N)C(=O)CCC3` [Compound 1]?
Answer: IC50 (CALCRL-RAMP3; [1]): 11900 nM; inhibition at 10 µM (CALCRL-RAMP3; antagonist mode, 10 µM): 63%; IC50 (CXCR4; [1]): 6900 nM; inhibition at 10 µM (CXCR4; antagonist mode, 10 µM): 39%; EC50 (GPR35; agonist format, dose response): 7500 nM; inhibition at 10 µM (GPR35; antagonist mode, 10 µM): -12%; IC50 (HTR1B; [1]): > 50000 nM; inhibition at 10 µM (HTR1B; antagonist mode, 10 µM): 42%; IC50 (NPSR1B; [1]): 1000 nM; inhibition at 10 µM (NPSR1B; antagonist mode, 10 µM): 59%; IC50 (PRLHR; [1]): 9300 nM; inhibition at 10 µM (PRLHR; antagonist mode, 10 µM): 44%; GI50 (CO:HT29): 49 nM; GI50 (LE:HL-60(TB)): 103 nM; GI50 (OV:NCI/ADR-RES): 46.3 nM; GI50 (PR:PC-3): 53.5 nM; inhibition at 10 µM (AVPR2): 13%; inhibition at 10 µM (DRD1): 12%; inhibition at 10 µM (DRD2S): -6%; inhibition at 10 µM (DRD3): 20%; inhibition at 10 µM (EDG5): -1%; inhibition at 10 µM (GLP1R): -1%; inhibition at 10 µM (GPR109B): 7%; inhibition at 10 µM (MC3R): 2%; inhibition at 10 µM (MCHR1): -77%; inhibition at 10 µM (P2RY4): -16%; inhibition at 10 µM (PTHR2): 7%
